From patent US5714576A, “Linear analogs of alpha-msh fragments” (Competitive Technologies, Inc., priority 1997, dated 1998)
Where two headings read alike, the source gives them in different places. Positions of bridges follow the written chain, without caps; N, C: chain ends. Non-standard residues stand in square brackets, D forms with d. Residues, ends and D or L forms follow the SMILES beside them. Nle = CCCC[C@H](N)C(=O)O

Assays:
Frog (Rana pipiens) Skin [1] = type: cell-based
Protocol: (§1) The biological potencies of alpha-MSH, the linear and cyclic analogues were determined by their ability to stimulate melanosome dispersion in vitro in the frog and lizard bioassays. This in vitro assay provides clear cut dose response curves (between 2.5×10^-11 and 4×10^-10 M) and can detect minimal concentration of alpha-MSH of about 10^-11 M. The assay is based upon the centrifugal dispersion of melanosomes (melanin granules) within the dendritic processes of integumental dermal melanophores leading to darkening of the skin. All the test solutions were prepared via serial dilutions from a stock solution (10^-4 M). The frogs (Rana pipiens) used in these evaluations were obtained from Kons Scientific, Germantown, Wis., and the lizards (Anolis carolinensis) were from the Snake Farm, La Place, La.

[2] = test system: Lizard (Anolis carolinensis) Skin; type: cell-based
Protocol: as §1

[3] = test system: Lizard (Anolis carolinensis) Skin; conditions: relative to alpha-MSH = 1.0; selective fragments of alpha-MSH, previous research; cited from earlier work
Frog (Rana pipiens) Skin [4] = conditions: cited from earlier work; for Relative Potency Frog: relative to alpha-MSH = 1.0, selective fragments of alpha-MSH, previous research
[5] = cyclic analogues, alpha-MSH = 1.0

Question: Which “Biological Potency Frog” value (Frog (Rana pipiens) Skin [1]) does the source give for `CCCC[C@H](NC(C)=O)C(=O)N[C@@H](CCC(=O)O)C(=O)N[C@@H](Cc1c[nH]cn1)C(=O)N[C@@H](Cc1ccccc1)C(=O)N[C@@H](CCCNC(=N)N)C(=O)N[C@@H](Cc1c[nH]c2ccccc12)C(=O)N[C@@H](CCCCN)C(N)=O` [Analogue 13] here?
Answer: 0.001

Question: And the “Residual Activity Frog (prolonged action)” value (Frog (Rana pipiens) Skin [1]; linear analogues)?
Answer: P(+)

Question: And the “Biological Potency Lizard” value [2]?
Answer: 0.08

Question: And the “Residual Activity Lizard (prolonged action)” value ([2]; linear analogues)?
Answer: P(-)

Question: Which results are given for `CCCC[C@H](NC(C)=O)C(=O)N[C@H]1CCC(=O)NCCCC[C@@H](C(=O)NCC(=O)N2CCC[C@H]2C(=O)N[C@H](C(N)=O)C(C)C)NC(=O)[C@H](Cc2c[nH]c3ccccc23)NC(=O)[C@H](CCCNC(=N)N)NC(=O)[C@@H](Cc2ccccc2)NC(=O)[C@H](Cc2c[nH]cn2)NC1=O` [Analogue 15] (Ac-[Nle]EH[dF]RWKGPV-NH2; lactam 2-7)?
Answer: Residual Activity Frog (prolonged action) (Frog (Rana pipiens) Skin [1]; cyclic analogues): p(+); Biological Potency Frog (Frog (Rana pipiens) Skin [1]; [5]): 1.0; Residual Activity Lizard (prolonged action) ([2]; cyclic analogues): p(+); Biological Potency Lizard [2, 5]: 6.0

Question: With `CCCC[C@H](NC(C)=O)C(=O)N[C@H]1CCC(=O)NCCCC[C@@H](C(N)=O)NC(=O)[C@H](Cc2c[nH]c3ccccc23)NC(=O)[C@H](CCCNC(=N)N)NC(=O)[C@@H](Cc2ccccc2)NC(=O)[C@H](Cc2c[nH]cn2)NC1=O` [Analogue 16] as the compound, how does the “Residual Activity Frog (prolonged action)” value (Frog (Rana pipiens) Skin [1]; cyclic analogues) read?
Answer: p(+)

Question: And the “Biological Potency Frog” value (Frog (Rana pipiens) Skin [1]; [5])?
Answer: 0.5

Question: And the “Residual Activity Lizard (prolonged action)” value ([2]; cyclic analogues)?
Answer: p(+)

Question: And the “Biological Potency Lizard” value [2, 5]?
Answer: 9.0

Question: Which results are given for `CCCC[C@H](NC(C)=O)C(=O)N[C@H]1CC(=O)NCCC[C@@H](C(N)=O)NC(=O)[C@H](Cc2c[nH]c3ccccc23)NC(=O)[C@H](CCCNC(=N)N)NC(=O)[C@@H](Cc2ccccc2)NC(=O)[C@H](Cc2c[nH]cn2)NC1=O` [Analogue 18]?
Answer: Residual Activity Frog (prolonged action) (Frog (Rana pipiens) Skin [1]; cyclic analogues): p(-); Biological Potency Frog (Frog (Rana pipiens) Skin [1]; [5]): 1.0; Residual Activity Lizard (prolonged action) ([2]; cyclic analogues): p(-); Biological Potency Lizard [2, 5]: 20.0

Question: What does the source list for `CCCC[C@H](NC(C)=O)C(=O)N[C@H]1CC(=O)NCC[C@@H](C(N)=O)NC(=O)[C@H](Cc2c[nH]c3ccccc23)NC(=O)[C@H](CCCNC(=N)N)NC(=O)[C@@H](Cc2ccccc2)NC(=O)[C@H](Cc2c[nH]cn2)NC1=O` [Analogue 19]?
Answer: Residual Activity Frog (prolonged action) (Frog (Rana pipiens) Skin [1]; cyclic analogues): p(-); Biological Potency Frog (Frog (Rana pipiens) Skin [1]; [5]): 1.0; Residual Activity Lizard (prolonged action) ([2]; cyclic analogues): p(-); Biological Potency Lizard [2, 5]: 5.0

Question: Which results are given for `CCCC[C@H](NC(C)=O)C(=O)N[C@H]1CC(=O)NC[C@@H](C(N)=O)NC(=O)[C@H](Cc2c[nH]c3ccccc23)NC(=O)[C@H](CCCNC(=N)N)NC(=O)[C@@H](Cc2ccccc2)NC(=O)[C@H](Cc2c[nH]cn2)NC1=O` [Analogue 20]?
Answer: Residual Activity Frog (prolonged action) (Frog (Rana pipiens) Skin [1]; cyclic analogues): p(-); Biological Potency Frog (Frog (Rana pipiens) Skin [1]; [5]): 0.01; Residual Activity Lizard (prolonged action) ([2]; cyclic analogues): p(-); Biological Potency Lizard [2, 5]: 5.0

Question: What does the source list for Ac--[Nle^4 ]-alpha-MSH4-10 NH2?
Answer: Relative Potency Lizard [3]: 0.06; Relative Potency Frog (Frog (Rana pipiens) Skin [4]): 0.002

Question: With Ac--[Nle^4 ]-alpha-MSH4-11 NH2 as the compound, how does the “Relative Potency Lizard” value [3] read?
Answer: 1.0

Question: And the “Relative Potency Frog” value (Frog (Rana pipiens) Skin [4])?
Answer: 0.002

Question: With “Ac--[Nle^4, D--Phe^7 ]-alpha-MSH4-10 NH2” as the compound, how does the “Relative Potency Lizard” value [3] read?
Answer: 10.0

Question: What about the “Relative Potency Frog” value (Frog (Rana pipiens) Skin [4]) of the same compound?
Answer: 0.02

Question: For Ac--[Nle^4,D--Phe^7 ]-alpha-MSH1-13 NH2, which “Relative Potency Lizard” value [3] is on record?
Answer: 5.0

Question: And the “Relative Potency Frog” value (Frog (Rana pipiens) Skin [4])?
Answer: 60.0

Question: With “Ac-Met-Glu-His-Phe-Arg-Trp-Gly-NH2 [Ac-alpha-MSH4-10 NH2]” as the compound, how does the “Relative Potency Lizard” value [3] read?
Answer: 0.004

Question: What about the “melanocyte stimulating activity in frog skin” value (Frog (Rana pipiens) Skin [4]; compared to the native hormone) of the same compound?
Answer: weak agonist

Question: And the “Relative Potency Frog” value (Frog (Rana pipiens) Skin [4])?
Answer: 0.0003

Question: What does the source list for Ac[Nle^4, D--Phe^7 ]-alpha-MSH4-11 NH2?
Answer: Relative Potency Lizard [3]: 8.0; Relative Potency Frog (Frog (Rana pipiens) Skin [4]): 0.16
